One block for each molecule: values may come before it.
How the values were obtained:
[1] = system: carotid artery thrombus formation; assay: In vivo carotid artery thrombosis model (FeCl3 induced injury); set-up: species or system C57BL/6J mice; conditions: 1% supplemented diet for 11 days
Experimental: Conventional mice (female, 10 weeks old, C57BL/6J, 10 per treatment group) were placed on chemically defined diets for 11 days. Mice were assessed for in vivo thrombosis potential with the common carotid injury model by application of 10% FeCl3 for 1 min (11, 38). […] The left carotid artery was exposed and injured by placing a FeCl3 soaked filter paper for one minute. […] Time to cessation of blood flow was determined by visual inspection of computer images of the thrombosis process from 30 seconds to 30 minutes by investigators blinded to mouse treatment group.

[2] = female, C57BL/6J, mouse, in vivo
Experimental: Stable isotope dilution LC/MS/MS was used for quantification of TML, TMAO, TMA, lysine, γ-butyrobetaine and carnitine similar to that described previously (1, 8, 9, 15). For TML standard curves, varying levels of TML were spiked into 20 μl control plasma followed by precipitation with 80 μl methanol containing 0.8 nmol d9-TML. Supernatant was loaded for LC/MS/MS analysis. Analyses were performed using electrospray ionization in positive-ion mode with multiple reaction monitoring of parent and characteristic daughter ions and retention times specific for components monitored. The transitions monitored for TML were mass-to-charge ratio (m/z): m/z 189.1→84.1, 189.1→60.1, and 189.1→130.1. The internal standards (e.g., d9-trimethyl-TML, d9-trimethyl-TMAO) were added to plasma before protein precipitation. Various concentrations of analytes and a fixed amount of internal standards were spiked into control plasma to prepare the calibration curves for quantification of plasma analytes. Their concentrations in human and mouse plasma samples were determined by high-performance liquid chromatography with a Shimadzu 8050 triple quadrupole mass spectrometer interfaced to a Shimadzu Nexera Ultra High Performance Liquid Chromatograph (UHPLC) system.
Conventional mice (female, 10 weeks old, C57BL/6J, 10 per treatment group) were placed on chemically defined diets for 11 days.

[3] = reference (19); cited from earlier work
[4] = system: cutC/D, yeaX/W, or cntA/B microbial TMA generating enzyme systems; assay: Recombinant microbial TMA lyases expressed in E. coli, d9-TMA production from d9-labeled substrates; assay type: biochemical; conditions: E. coli transformed with cutC/D
[5] = system: mouse cecal, colonic and small bowel microbiota; assay: Gut microbial TMA lyase activity assay, d9-TMA production in anaerobic cultures of mouse intestine segments
Experimental: (§1) TMA lyase activity was monitored by quantifying d9-TMA production from d9(trimethyl) labeled potential nutrient precursors by stable isotope dilution LC/MS/MS analysis. Briefly, TMA lyase activity was typically quantified by incubating the indicated enzyme source (C57BL/6J female mouse intestine segments or human feces from healthy vegans/vegetarians and omnivores). Reactions were initiated by the addition of d9-labeled substrates (d9-TML, d9-carnitine or d9-choline) incubated under anaerobic conditions. Following 20 hours incubation at 37° C., reactions were halted, [^13C3,^15N]-TMA (Sigma Chemicals, St. Louis, MO) in 0.2 N formic acid was added as an internal standard, followed by immediate extraction of TMA isotopologues into the organic layer produced following mixing with successive additions of 2 ml hexane, 1 ml butanol and 0.2 ml 1N NaOH (to deprotonate the TMA isotopologues). Mixtures were then vortexed, centrifuged, and the upper hexane layer was transferred to a 12×75 mm PTFE capped threaded glass tube, acidified with the addition of 200 μl of 0.2 N formic acid, vortexed and the organic and aqueous layers were separated by centrifugation. The now protonated TMA isotopologues were recovered in the aqueous phase for quantitation by stable isotope dilution LC/MS/MS analysis. Sample aliquots were injected onto a reverse phase C18 HPLC column (2.0×150 mm, 5 μm, Phenomenex Prodigy (Phenomenex)) eluted at a flow rate of 0.2 ml/min and resolved using a linear gradient between 0.2% formic acid in water and 0.2% formic acid in acetonitrile/methanol (95:5, v/v). HPLC column effluent was introduced into an AB Sciex 5500 QTRAP mass spectrometer using electrospray ionization in the positive-ion mode. Both d9-TMA and [^13C3,^15N]TMA were monitored using multiple reaction monitoring of parent and characteristic daughter ions: m/z 69→49 for d9-TMA; and m/z 64→47 for [^13C3,^15N]TMA. Reactions without microbial enzyme source (tissues, cells, cell lysates, or isolated proteins) were used as blank.

[6] = system: human fecal commensals (omnivores and vegans); assay: Gut microbial TMA lyase activity assay, d9-TMA production in human polymicrobial fecal anaerobic cultures; assay type: in vitro ADME
Experimental: as §1
(§2) Human feces and all bacteria including individual strain and fresh combined 68 strains were grown with 100 μM d9-TML or d9-choline (as a positive control) in complex reduced medium in a Coy anaerobic chamber (5% H2, 20% CO2, and 75% N2, 37° C.) for 0-4 days as previously described (27). The reaction was stopped by adding 6N HCl to samples (1:100 dilution to 60 mM final), and freezing at −80° C. until d9-TMA extraction and analysis by LC-MS/MS, as described in Methods above.

[7] = system: panel of 68 culturable human commensals; assay: In vitro screening for the conversion of d9-TML to d9-TMA by culturable human commensals; assay type: in vitro ADME, human gut bacteria
Experimental: as §2

[8] = Oral (gastric gavage) d9-TML or d9-choline isotope tracer challenge, serial plasma levels by LC/MS/MS
Experimental: Supernatant was loaded for LC/MS/MS analysis.
Whole blood (50 μl) was collected via the saphenous vein from C57BL/6J (Jackson #0664) female mice prior to gavage for the measurement of baseline analyte levels. Mice were administered an oral dose of stable isotope-labelled TML or choline. The gastric gavage consisted of 150 μl of either 150 mM synthetic d9-TML or 150 mM choline-N,N,N-trimethyl-d9 (d9-choline, Cambridge Isotope Lab), followed by post-gavage blood collection at the indicated times. Where indicated, gut microbiota were suppressed in mice by placement of a cocktail of poorly absorbed antibiotics in drinking water for 3 weeks prior to the d9-TML challenge, as previously described (1, 19). Quantification of the abundance of native and isotope-labeled forms of TML, TMA and TMAO in mouse plasma was performed using stable-isotope-dilution LC-MS/MS using established methods for TMA and TML (19), and using the parent daughter ion transitions for TML and its internal standard as described above. In additional studies, the role of gut microbiota in TMAO formation from dietary TML was determined in C57BL/6J mice by performance of oral (gavage) d9-TML challenge. Mice were housed in conventional cages in the absence or presence of a cocktail of broad spectrum antibiotics added to the drinking water previously shown to suppress gut microbiota (1,19).

[9] = anaerobic culture, 20 hours, 37° C.
[10] = conventionally reared C57BL/6J mice, gastric gavage 150 μl of 150 mM

plasma level of TMAO after 11 days of the indicated diet [2]: 4.5 ± 2.1 µM
plasma level of TML after 11 days of the indicated diet [2]: 37.0 ± 15.5 µM
increase in plasma TML levels ([2]; 11 days): ~100 fold
Compound: C[N+](C)(C)CCCC[C@H](N)C(=O)O [TML, N6-trimethyl-lysine]
in vivo thrombosis potential (thrombus formation rate, time to cessation of blood flow) [1]: failed to significantly change

Compound: C[N+](C)(C)CC(=O)O [betaine]
rate as TMA nutrient precursor, less than choline [3]: about 100 fold

plasma level of TMAO after 11 days of the indicated diet [2]: 90.6 ± 55.1 µM
plasma level of TML after 11 days of the indicated diet [2]: 0.8 ± 0.4 µM
rise of plasma TMAO levels ([2]; 11 days): ~20 fold
Compound: C[N+](C)(C)CCO [choline]

Compound: [2H]C([2H])([2H])[N+](CCCCC(N)C(=O)O)(C([2H])([2H])[2H])C([2H])([2H])[2H] (stereo not shown) [d9-TML, [d9-N, N, N-trimethyl] lysine]
conversion into d9-TMA by recombinant microbial TMA generating enzyme systems [4]: none of the known recombinant microbial TMA generating enzyme systems examined supported d9-TML conversion into d9-TMA
d9-TMA formation by small bowel microbes [5, 9]: significantly lower but detectable levels
d9-TMA generation by microbes from cecal and colonic segments [5, 9]: generated d9-TMA
d9-TML to d9-TMA transformation, feces of omnivores versus vegans ([6]; P<0.04): significantly greater activity than vegans
overall level of TMA generation from TML in human fecal cultures ([6]; omnivores and vegans, anaerobic): relatively low
conversion of d9-TML to d9-TMA by eighteen individual members of the human commensal library ([7]; anaerobic, 100 μM): none of these species significantly promoted conversion
d9-TML to d9-TMA transformation by pool of all 68 species ([7]; prolonged (4 days) incubation, assay limit of detection ~1 nM): virtually no detectable
plasma d9-TMAO following d9-TML oral gavage in mice treated with oral antibiotics ([8]; 3 weeks cocktail of poorly absorbed broad-spectrum antibiotics): no detectable
impact of pretreatment with oral antibiotics on plasma d9-TML levels following oral gavage ([8]; P=0.87): no impact
plasma level of d9-TMA following oral d9-TML gavage [8, 10]: rose only minimally
plasma level of d9-TMAO following oral d9-TML gavage [8, 10]: rose only minimally
time to increase in plasma d9-TML level following ingestion ([8]; oral gavage, C57BL/6J mice): ≤ 1 h

synthetic capacity of cecal microbiota to generate d9-TMA, higher than that observed with d9-TML [5]: 10 fold
d9-TMA formed in vegan fecal cultures compared with d9-TML [6]: comparable degree
production of d9-TMA in polymicrobial fecal cultures from omnivores, greater [6]: > 100 fold
Compound: [2H]C(O)(CC(=O)[O-])C([2H])([2H])[N+](C)(C([2H])([2H])[2H])C([2H])([2H])[2H] (stereo not shown) [d9-carnitine]

synthetic capacity of cecal microbiota to generate d9-TMA, higher than that observed with d9-TML [5]: 1000 fold
d9-TMA conversion in human fecal cultures, greater than the levels produced from d9-TML [6]: approximately 3 orders of magnitude
plasma level of isotope labeled precursor compared with d9-TML challenge ([8]; mouse, in vivo): substantially lower
peak plasma level of d9-TMA, higher than after the same molar amount of oral d9-TML ([8]; mouse, in vivo, po): 30-50 fold
peak plasma level of d9-TMAO, higher than after the same molar amount of oral d9-TML ([8]; mouse, in vivo, po): 30-50 fold
Compound: [2H]C([2H])([2H])[N+](CCO)(C([2H])([2H])[2H])C([2H])([2H])[2H] [d9-choline, choline-N,N,N-trimethyl-d9]
